# Measured values: patent US10689384B2, “Imidazo[1,2-a]quinoxalines and derivatives thereof for the treatment of cancer” (Universite de Montpellier, priority 2014, dated 2020)
# Assays:
# human cancer cell lines = experiment: In vitro cytotoxicity study, Summarized results 2 (cell line not given); format: cell-based; settings: Table 4, Summarized results 2, cell line not stated
# Description: (§1) The goal of this protocol is to study the effects of the compounds on the proliferation of various human cancer cell lines in order to evaluate the EC50 and their activity in cellulo.
# (§2) The cells are seeded the day before treatment in 96 well plates. Each compound concentration is tested in triplicate. A 96 well plate can contain 3 compounds.
# (§3) Stock solutions of the tested compounds are prepared at 10 mM in 100% DMSO and stored at […].
# (§4) The analysis is carried out by using the GraphPad PRISM 5.0 software.
# (§5) Day 1: the cells are seeded one day before treatment with the compounds in 96 well plates. Cell suspensions for each cancer cell line are prepared with a specific density in a specific culture medium (see preceding table). Next, 100 µL of cell suspension is distributed per well (1×96 well plate per cell line).
# (§6) Day 2: 24 hours later, the […] compounds or controls (DMSO) are added to the cells ([…] of a compound solution in its specific medium with a final DMSO concentration of 0.15%).
# (§7) Each compound concentration is tested in triplicate (6 concentrations between 10^−9 M and 10^−5 M per compound). The cells are incubated at 37° C. for 72 hours with no new treatment.
# (§8) Day 5: 15 minutes before incubation of the cells with MTT (3-[4,5-dimethylthiazol-2-yl]-2,5-diphenyltetrazolium bromide), 10% SDS is added to the control wells to obtain a final concentration of 1%. The positive control of inhibition of proliferation is 1% SDS.
# (§9) Once the medium is removed, 100 µL of a solution of MTT in fresh medium is added to each well (10 μL of 10×MTT solution at 5 mg/mL in PBS +[…] of fresh medium) and the plates are incubated for 4 hours at 37° C.
# (§10) The MTT reaction is quenched and the medium is homogenized by addition of […] of 10% SDS/0.01 M HCl solution placed in each well. The medium is incubated for 2 hours at 37° C. before measuring its absorbance. Absorbance is measured at 570 nm.
# PC-3 = experiment: In vitro cytotoxicity study, inhibition of cell growth (MTT); format: cell-based; settings: Homo sapiens, PC-3, prostate, 72 hours
# Description: as §1, §2
# (§11) Cell suspensions for each cancer cell line are prepared in culture medium with a specific density of the specific cell (see the following table). Then, 100 µL of cell suspension is spread per well (plate per one cell line).
# as §3, §4, §5, §6, §7, §8, §9, §10
# AsPC-1 = experiment: as above; format: cell-based; settings: Homo sapiens, ASPC1, AsPC-1, pancreas, 72 hours
# Description: as §1, §2, §11, §3, §4, §5, §6, §7, §8, §9, §10
# A375 = experiment: as above; format: cell-based; settings: Homo sapiens, A-375, A375, melanoma, 72 hours
# Description: as §1, §2, §11, §3, §4, §5, §6, §7, §8, §9, §10
# LoVo = experiment: as above; format: cell-based; settings: Homo sapiens, colon, 72 hours
# Description: as §1, §2, §11, §3, §4, §5, §6, §7, §8, §9, §10
# COLO-205 = experiment: as above; format: cell-based; settings: Homo sapiens, COLO-205, colon, 72 hours
# Description: as §1, §2, §11, §3, §4, §5, §6, §7, §8, §9, §10
# T-47D = experiment: as above; format: cell-based; settings: Homo sapiens, T47D, breast, 72 hours
# Description: as §1, §2, §11, §3, §4, §5, §6, §7, §8, §9, §10
# HepG2 = experiment: as above; format: cell-based; settings: Homo sapiens, HepG2, liver, 72 hours
# Description: as §1, §2, §11, §3, §4, §5, §6, §7, §8, §9, §10
# Capan-1 = experiment: as above; format: cell-based; settings: Homo sapiens, Capan-1, pancreas, 72 hours
# Description: as §1, §2, §11, §3, §4, §5, §6, §7, §8, §9, §10
# CFPAC-1 = experiment: as above; format: cell-based; settings: Homo sapiens, CFPAC-1, pancreas, 72 hours
# Description: as §1, §2, §11, §3, §4, §5, §6, §7, §8, §9, §10
# BxPC3 = experiment: as above; format: cell-based; settings: Homo sapiens, BXPC-3, BxPC3, pancreas, 72 hours
# Description: as §1, §2, §11, §3, §4, §5, §6, §7, §8, §9, §10
# PF382 = experiment: as above; format: cell-based; settings: Homo sapiens, PF-382, PF382, lymphoid, 72 hours
# Description: as §1, §2, §11, §3, §4, §5, §6, §7, §8, §9, §10
# A2058 = experiment: as above; format: cell-based; settings: Homo sapiens, A2058, melanoma, 72 hours
# Description: as §1, §2, §11, §3, §4, §5, §6, §7, §8, §9, §10
# IPC298 = experiment: as above; format: cell-based; settings: Homo sapiens, IPC-298, IPC298, melanoma, 72 hours
# Description: as §1, §2, §11, §3, §4, §5, §6, §7, §8, §9, §10
# Calu-1 = experiment: as above; format: cell-based; settings: Homo sapiens, Calu-1, lung, 72 hours
# Description: as §1, §2, §11, §3, §4, §5, §6, §7, §8, §9, §10
# MEWO = experiment: as above; format: cell-based; settings: Homo sapiens, melanoma, 72 hours
# Description: as §1, §2, §11, §3, §4, §5, §6, §7, §8, §9, §10
# purified tubulin = biological target: T1, purified tubulin (Sus scrofa, UniProt P02550+P02554); experiment: Effect on the polymerization of purified tubulin (turbidimetry at 350 nm); format: biochemical, pig; settings: 2.4 μM tubulin, 37° C.
# T1 construct: Tubulin is prepared from pig brain; from tissue; host or cells: pig brain
# Description: FIG. 1. Study of the innovative effect of compounds of the selection patent on the polymerization of purified tubulin. This is a comparative study of the effect on the polymerization of purified tubulin by compounds of the selection patent compared to that of the compounds of the patent FR 2,921,927. Polymerized tubulin absorbs at 350 nm.
# Tubulin is prepared from pig brain according to the purification process described by Williams and Lee (1982). Tubulin polymerization is monitored by turbidimetry at 350 nm with an MC2 spectrophotometer (Safas, Monaco) equipped with a heat-jacketed cuvette holder. The reaction mixture was prepared at 0° C., and contains PEM buffer, 25% glycerol (v/v), 1 mM GTP, and 2.4 μM tubulin. The GTP and the tubulin are added at the last minute. […] The same volume of DMSO alone was used as a negative control. The final volume of the sample is […]. The reaction is initiated by placing the cuvette in the cell compartment of the spectrophotometer thermostated at 37° C. Ice is added 45 minutes later to launch depolymerization in order to confirm the specificity of the signal.
# T1 sequence (P02550 whole entry): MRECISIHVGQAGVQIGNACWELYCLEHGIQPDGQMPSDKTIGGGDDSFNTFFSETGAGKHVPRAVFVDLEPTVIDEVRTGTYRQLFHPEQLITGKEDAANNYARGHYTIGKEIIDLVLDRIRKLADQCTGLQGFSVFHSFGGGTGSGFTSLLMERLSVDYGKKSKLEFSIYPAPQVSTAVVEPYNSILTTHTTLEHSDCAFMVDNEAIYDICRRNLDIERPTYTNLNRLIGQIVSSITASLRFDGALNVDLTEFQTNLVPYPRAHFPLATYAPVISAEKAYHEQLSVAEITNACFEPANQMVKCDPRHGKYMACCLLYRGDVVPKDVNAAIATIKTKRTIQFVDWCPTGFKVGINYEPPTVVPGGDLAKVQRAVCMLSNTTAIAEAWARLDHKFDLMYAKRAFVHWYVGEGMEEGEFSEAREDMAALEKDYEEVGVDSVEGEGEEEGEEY
# T1 sequence (P02554 whole entry): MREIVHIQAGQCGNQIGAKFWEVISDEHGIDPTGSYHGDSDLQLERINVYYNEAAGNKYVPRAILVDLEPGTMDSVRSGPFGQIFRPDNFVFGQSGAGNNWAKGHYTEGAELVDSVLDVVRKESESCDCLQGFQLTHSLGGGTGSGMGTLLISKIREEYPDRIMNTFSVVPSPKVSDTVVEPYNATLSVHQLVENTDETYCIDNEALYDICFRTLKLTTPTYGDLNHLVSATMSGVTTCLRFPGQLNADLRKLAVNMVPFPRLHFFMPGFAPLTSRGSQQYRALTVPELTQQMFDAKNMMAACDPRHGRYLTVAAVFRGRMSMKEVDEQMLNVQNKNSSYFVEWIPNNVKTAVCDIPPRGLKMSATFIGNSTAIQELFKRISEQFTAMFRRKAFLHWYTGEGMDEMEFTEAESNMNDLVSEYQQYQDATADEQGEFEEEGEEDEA
smiles,measurement,setting,value
"CNc1nc2ccccc2n2c(Br)cnc12 [CPA 8, 1-Bromo-N-methylimidazo[1,2-a]quinoxalin-4-amine]",IC50,human cancer cell lines; Homo sapiens,2350 nM
"Oc1ccc(-c2cnc3c(N4CCNCC4)nc4ccccc4n23)cc1O [EAPB0 2308, 4-(4-(Piperazin-1-yl)imidazo[1,2-a]quinoxalin-1-yl)benzene-1,2-diol]",IC50,human cancer cell lines; Homo sapiens,> 10000 nM
"CNc1nc2ccccc2n2c(-c3cccc(OC)c3)cnc12 [EAPB0503, 1-(3-methoxyphenyl)-N-methylimidazo[1,2-a]quinoxalin-4-amine, reference compound]",EC50,PC-3,537 nM
same,EC50,AsPC-1,2800 nM
same,EC50,A375,383 nM
same,EC50,LoVo,89 nM
same,EC50,COLO-205,201 nM
same,EC50,T-47D,198 nM
same,EC50,HepG2,1360 nM
same,EC50,Capan-1,561 nM
same,EC50,CFPAC-1,598 nM
same,EC50,BxPC3,159 nM
same,EC50,PF382,205 nM
same,EC50,A2058,185 nM
same,EC50,IPC298,469 nM
same,EC50,Calu-1,196 nM
same,EC50,MEWO,125 nM
same,Effect on polymerization of purified tubulin (absorbance level at 350 nm),purified tubulin,decreases the absorbance level
"Nc1nc2ccccc2n2c(-c3ccc(O)c(O)c3)cnc12 [EAPB02302, 1-(3,4-Dihydroxyphenyl)imidazo[1,2-a]quinoxalin-4-amine]",EC50,PC-3,56 nM
same,EC50,AsPC-1,1820 nM
same,EC50,A375,60 nM
same,EC50,LoVo,44 nM
same,EC50,COLO-205,44 nM
same,EC50,T-47D,78 nM
same,EC50,HepG2,267 nM
same,EC50,Capan-1,206 nM
same,EC50,CFPAC-1,67 nM
same,EC50,BxPC3,25 nM
same,EC50,PF382,29 nM
same,EC50,A2058,13 nM
same,EC50,IPC298,75 nM
same,EC50,Calu-1,14 nM
same,EC50,MEWO,10 nM
"CNc1nc2ccccc2n2c(-c3ccc(OC)c(OC)c3)cnc12 [EAPB 02203, 1-(3,4-Dimethoxyphenyl)-N-methylimidazo[1,2-a]quinoxalin-4-amine]",IC50,human cancer cell lines; Homo sapiens,193 nM
"CNc1nc2cc(OC(F)(F)F)ccc2n2c(-c3ccc(OC)c(OC)c3)cnc12 [EAPB 02203-7b, 1-(3,4-Dimethoxyphenyl)-N-methyl-7-(trifluoromethoxy)imidazo[1,2-a]quinoxalin-4-amine]",IC50,human cancer cell lines; Homo sapiens,3490 nM
"CNc1nc2ccc(C(F)(F)F)cc2n2c(-c3ccc(OC)c(OC)c3)cnc12 [EAPB 02203-8a, 1-(3,4-Dimethoxyphenyl)-N-methyl-8-(trifluoromethyl)imidazo[1,2-a]quinoxalin-4-amine]",IC50,human cancer cell lines; Homo sapiens,> 10000 nM
"COc1ccc(-c2cnc3c(NCCNC(=O)OC(C)(C)C)nc4ccccc4n23)cc1OC [EAPB 02211, tert-Butyl (2-((1-(3,4-dimethoxyphenyl)imidazo[1,2-a]quinoxalin-4-yl)amino)ethyl)carbamate]",IC50,human cancer cell lines; Homo sapiens,> 10000 nM
"COc1ccc(-c2cnc3c(NCCCCCCNC(=O)OC(C)(C)C)nc4ccccc4n23)cc1OC [EAPB 02212, tert-Butyl (6-((1-(3,4-dimethoxyphenyl)imidazo[1,2-a]quinoxalin-4-yl)amino)hexyl)carbamate]",IC50,human cancer cell lines; Homo sapiens,> 10000 nM
"COc1ccc(-c2cnc3c(N4CCN(C(=O)OC(C)(C)C)CC4)nc4ccccc4n23)cc1OC [EAPB 02213, tert-Butyl 4-(1-(3,4-dimethoxyphenyl)imidazo[1,2-a]quinoxalin-4-yl)piperazine-1-carboxylate]",IC50,human cancer cell lines; Homo sapiens,> 10000 nM
"COc1ccc(-c2cnc3c(NCCCNC(=O)OC(C)(C)C)nc4ccccc4n23)cc1OC [EAPB 02214, tert-Butyl (3-((1-(3,4-dimethoxyphenyl)imidazo[1,2-a]quinoxalin-4-yl)amino)propyl)carbamate]",IC50,human cancer cell lines; Homo sapiens,> 10000 nM
COc1ccc(-c2cnc3c(NC(C)C(=O)OC(C)(C)C)nc4ccccc4n23)cc1OC (centres unmarked) [EAPB 02218],IC50,human cancer cell lines; Homo sapiens,> 10000 nM
COc1ccc(-c2cnc3c(NC(C(=O)OC(C)(C)C)C(C)C)nc4ccccc4n23)cc1OC (centres unmarked) [EAPB 02220],IC50,human cancer cell lines; Homo sapiens,> 10000 nM
COc1ccc(-c2cnc3c(NC(CC(C)C)C(=O)OC(C)(C)C)nc4ccccc4n23)cc1OC (centres unmarked) [EAPB 02222],IC50,human cancer cell lines; Homo sapiens,> 10000 nM
"CNc1nc2ccccc2n2c(-c3ccc(O)c(O)c3)cnc12 [EAPB 02303, 1-(3,4-Dihydroxyphenyl)-N-methylimidazo[1,2-a]quinoxalin-4-amine]",IC50,human cancer cell lines; Homo sapiens,< 3 nM
same,EC50,PC-3,12 nM
same,EC50,AsPC-1,957 nM
same,EC50,A375,10 nM
same,EC50,LoVo,45 nM
same,EC50,COLO-205,38 nM
same,EC50,T-47D,13 nM
same,EC50,HepG2,247 nM
same,EC50,Capan-1,154 nM
same,EC50,CFPAC-1,12 nM
same,EC50,BxPC3,11 nM
same,EC50,PF382,7 nM
same,EC50,A2058,4 nM
same,EC50,IPC298,40 nM
same,EC50,Calu-1,4 nM
same,EC50,MEWO,3 nM
same,Effect on polymerization of purified tubulin (absorbance level at 350 nm),purified tubulin,leaves it unchanged
"CNc1nc2cc(C(F)(F)F)ccc2n2c(-c3ccc(O)c(O)c3)cnc12 [EAPB 02303-7a, 4-(4-(Methylamino)-7-(trifluoromethyl)imidazo[1,2-a]quinoxalin-1-yl)benzene-1,2-diol]",IC50,human cancer cell lines; Homo sapiens,6910 nM
"CNc1nc2cc(OC(F)(F)F)ccc2n2c(-c3ccc(O)c(O)c3)cnc12 [EAPB 02303-7b, 4-(4-(Methylamino)-7-(trifluoromethoxy)imidazo[1,2-a]quinoxalin-1-yl)benzene-1,2-diol]",IC50,human cancer cell lines; Homo sapiens,199 nM
CNc1nc2cc(C#N)ccc2n2c(-c3ccc(O)c(O)c3)cnc12 [EAPB 02303-7c],IC50,human cancer cell lines; Homo sapiens,6390 nM
"CNc1nc2ccc(C(F)(F)F)cc2n2c(-c3ccc(O)c(O)c3)cnc12 [EAPB 02303-8a, 4-(4-(Methylamino)-8-(trifluoromethyl)imidazo[1,2-a]quinoxalin-1-yl)benzene-1,2-diol]",IC50,human cancer cell lines; Homo sapiens,> 10000 nM
CNc1nc2ccc(OC(F)(F)F)cc2n2c(-c3ccc(O)c(O)c3)cnc12 [EAPB 02303-8b],IC50,human cancer cell lines; Homo sapiens,> 10000 nM
"NCCNc1nc2ccccc2n2c(-c3ccc(O)c(O)c3)cnc12 [EAPB 02306, 4-(4-((2-Aminoethyl)amino)imidazo[1,2-a]quinoxalin-1-yl)benzene-1,2-diol]",IC50,human cancer cell lines; Homo sapiens,1280 nM
"NCCNc1nc2ccccc2n2c(-c3ccc(O)c(O)c3)cnc12 [EAPB 02306s, 2-((1-(3,4-Dihydroxyphenyl)imidazo[1,2-a]quinoxalin-4-yl)amino)ethylammonium chloride]",IC50,human cancer cell lines,1700 nM
"NCCCCCCNc1nc2ccccc2n2c(-c3ccc(O)c(O)c3)cnc12 [EAPB 02307, 4-(4-((6-Aminohexyl)amino)imidazo[1,2-a]quinoxalin-1-yl)benzene-1,2-diol]",IC50,human cancer cell lines; Homo sapiens,5690 nM
"NCCCNc1nc2ccccc2n2c(-c3ccc(O)c(O)c3)cnc12 [EAPB 02309, 4-(4-((3-Aminopropyl)amino)imidazo[1,2-a]quinoxalin-1-yl)benzene-1,2-diol]",IC50,human cancer cell lines; Homo sapiens,5590 nM
O=C(CNc1nc2ccccc2n2c(-c3ccc(O)c(O)c3)cnc12)NC(CO)(CO)CO [EAPB 02310],IC50,human cancer cell lines; Homo sapiens,> 10000 nM
"CNc1nc2ccccc2n2ccnc12 [PED 26, N-Methylimidazo[1,2-a]quinoxalin-4-amine]",IC50,human cancer cell lines; Homo sapiens,> 10000 nM
